According to patent publication US4510158A, “2-Phenylindole derivatives, their use as complement inhibitors” (Sterling Drug Inc., priority 1984, dated 1985):

Tests used:
[1] = system: human complement (C1-C9), classical complement pathway; assay: Hemolytic molecular titrations of classical complement activity (lysis of sensitized sheep erythrocytes by normal human serum); format: biochemical; settings: concentration effecting 50% suppression of lysis (Z/Zo=0.5), 37° C., 60 min, read-out: Classical Complement Pathway Inhibition IC50
Experimental: (§1) The compounds were evaluated in vitro for their inhibition of human complement (C1-C9) using hemolytic molecular titrations, and the reverse passive Arthus reaction (RPAR) in guinea pigs was chosen as a complement mediated model of acute inflammation to be used to identify compounds with in vivo complement inhibitory activity.
Hemolytic molecular titrations of classical complement activity were performed according to Rapp and Borsos [Molecular Basis of Complement Action, Appleton-Century-Crofts, New York, NY, 1970] and complement inhibition assessed according to Hong et al. (J. Immunol. 1979, Vol. 122, 2418). Operationally, the test compound was maintained in the presence of complement during the lytic reaction of sensitized erythrocytes. Equal volumes (0.2 ml) of normal human serum (NHS), diluted in GVB^++ [Mayer, M. M. in Kabat and Mayer's Experimental Immunochemistry, 2nd Ed.; Charles C. Thomas, Springfield, Ill., 1961, p. 133] to effect lysis of Z=1, and test compound at various concentrations were mixed at 0° C. […] EA (0.2 ml of 1.5×10^8 cells/ml) and 1.8 ml of GVB^++ were added to the reaction mixture followed by incubating at 37° C. for 60 min. The extent of lysis was determined spectrophotometrically at 412 nm. The ratio of treated to untreated (Z/Zo) reaction mixtures was determined as a function of test compound concentration.

[2] = system: reverse passive Arthus reaction (RPAR); assay: Reverse Passive Arthus Reaction (RPAR) in guinea pigs, complement mediated model of acute inflammation; format: in vivo, guinea pig; settings: 80 mg/kg iv, 20 min before elicitation; p = 0.001
Experimental: as §1

Row | Compound | IC50 [1] [µM] | RPAR % Inhib. [2] [%]
1 | Gold sodium thiomalate [reference compound] | 1070 ± 90 | 
2 | O=C(O)C1CC=C(c2c(-c3ccccc3)[nH]c3ccccc23)CC1 (stereo not shown) [Example 1, 4-(2-Phenyl-1H-indol-3-yl)-3-cyclohexene-1-carboxylic acid] | 135 ± 2 | 64 ± 7
3 | O=C(O)c1ccc(-c2c(-c3ccccc3)[nH]c3ccccc23)cc1 [Example 15, 4-(2-Phenyl-1H-indol-3-yl)benzoic acid] | 105 ± 4 | 
